The values that follow come from ChEMBL document CHEMBL1131006, “Antimycobacterial activity of substituted isosteres of pyridine- and pyrazinecarboxylic acids” (1998).

Converted amounts (≈) assume the structure as drawn.

For the experiment, the system named is Mycobacterium tuberculosis. The experiment is described as follows: Compound was tested for inhibitory activity against Mycobacterium tuberculosis H37Rv ATCC 27294 and the activity is expressed as minimum inhibitory concentration (MIC). Format: functional.
As for `O=c1cc(O)c2ccncc2o1`, the MIC (commonly the lowest concentration found to suppress growth) was > 210 µg/mL.
The result for `C[S+]([O-])CC(=O)c1cnccn1` (stereo unspecified) reads > 210 µg/mL; that for `c1cncc(C2N=NN=N2)c1`, > 210 µg/mL; that for `CSCC(=O)c1cnccn1`, 105 µg/mL (≈ 624 µM).
In turn, `CSCC(=O)c1cccnc1` registered an MIC of 210 µg/mL (≈ 1260 µM).
The figure for `CC(C)(C)C(=O)OCn1nnc(-c2cccnc2)n1` is 13 µg/mL (≈ 49.8 µM); for `c1cc(C2N=NN=N2)ccn1` it is > 210 µg/mL; for `CC(C)(C)C(=O)OCn1nnnc1-c1cccnc1` it is 105 µg/mL (≈ 402 µM).
`CCOC(=O)Oc1cc(=O)oc2cnccc12`: the MIC is > 210 µg/mL.
In turn, `CC(C)(C)C(=O)OCn1nnnc1-c1ccncc1` yielded a minimal inhibitory concentration (MIC) of 52 µg/mL (≈ 199 µM).
In the case of `CSCC(=O)c1ccncc1`, the MIC was 210 µg/mL (≈ 1260 µM).
The figure for `C[S+]([O-])CC(=O)c1cccnc1` (stereo unspecified) is > 210 µg/mL; for `NC(=O)c1cnccn1` [PYRAZINAMIDE] it is 52 µg/mL (≈ 422 µM).
Regarding `C[S+]([O-])CC(=O)c1ccncc1` (stereo unspecified), the MIC was > 210 µg/mL.
The figure for `O=C(Oc1cc(=O)oc2cnccc12)c1ccccc1` is 210 µg/mL (≈ 786 µM).
The figure for `NNC(=O)c1ccncc1` [ISONIAZID] is < 0.02 µg/mL; for `CC(C)(C)C(=O)OCn1nnnc1-c1cnccn1` it is 13 µg/mL (≈ 49.6 µM); for `CC(=O)Oc1cc(=O)oc2cnccc12` it is > 210 µg/mL.
The result for `CC(C)(C)C(=O)OCn1nnc(-c2ccncc2)n1` reads 26 µg/mL (≈ 99.5 µM); that for `c1cnc(C2N=NN=N2)cn1`, > 210 µg/mL.
The compound `CC(C)(C)C(=O)OCn1nnc(-c2cnccn2)n1` registered an MIC of 26 µg/mL (≈ 99.1 µM).
